{"source": "patent US20220265776A1", "about": "“COMBINATION” (GENESIS PHARMA SA, priority 2019, published 2022)", "key": {"[1]": {"tested_on": "rat thromboembolic model of stroke", "settings": "continuous infusion (75 ng/h), at 7 days post middle cerebral artery occlusion; cited from earlier work"}, "[2]": {"tested_on": "rat model of stroke (middle cerebral artery occlusion)", "settings": "10 μg/kg IP loading dose plus 200 ng/h sc infusion beginning 4.5 h or 10 h after onset of ischemia; cited from earlier work"}, "[3]": {"tested_on": "rat model of transient middle cerebral artery occlusion", "experiment": "Rat t-MCAO: modified neurological severity score (NSS), scale 0 to 18", "format": "in vivo", "settings": "for modified neurological severity score (NSS) compared with the control group on Day 2 / modified neurological severity score (NSS) compared with the control group on Day 7: monotherapy; for Modified NSS on Day 2 (mean + SD) / Modified NSS on Day 7 (mean + SD) / percentage change of Modified NSS on Day 2 vs the control group / percentage change of Modified NSS on Day 7 vs the control group: repeated administration (7 days)", "method": "(§1) Test compounds were administrated intravenously 20 minutes before reperfusion and then twice a day thereafter for six consecutive days. The modified neurological severity score (NSS) was graded on a scale of 0 to 18 (in which normal score was 0 and maximal deficit score was represented by 18), on Study Day 2 (one day following surgery) and on Study Day 7 (7 days post-surgery and before study termination); it included a set of clinical-neurological tests (composite of motor, sensory, reflex and balance tests). At study termination brains were harvested, sliced into five 2 mm thick coronal sections and stained with triphenyl tetrazolium chloride (TTC) for infarct size measurement using ImageJ program. Morbidity, mortality, body weight and clinical observation were also recorded. […] The statistical significance (P) of treated groups vs the untreated control group was determined using two-way ANOVA followed by Bonferroni post hoc test, using GraphPad Prism 5 program.\n(§2) Due to mortality in some of the groups, the numbers within the groups were adjusted to have sufficient animals in all the groups.\n(§3) In study Part II, a total of 86 SD male rats (270-320 gr upon arrival) were divided into 9 groups (7 or 15 rats per treated group and 6 rats in the control group). Due to mortality in some of the groups, the numbers within the groups were adjusted to have sufficient animals in all the groups."}, "[4]": {"tested_on": "rat model of transient middle cerebral artery occlusion", "experiment": "Rat t-MCAO: brain infarct size (TTC staining, ImageJ)", "format": "in vivo", "settings": "for Relative brain infarct volume on Day 7 (%) (mean + SD) / percentage change of relative brain infarct volume on Day 7 vs the control group: repeated administration (7 days); for efficacy when administered as monotherapies: low doses, monotherapy", "method": "as §1, §2, §3"}, "[5]": {"settings": "Treatment I: glibenclamide 1 μg/Kg iv"}, "[6]": {"settings": "Treatment J: glibenclamide 3 μg/Kg iv"}, "[7]": {"settings": "Treatment K: glibenclamide 10 μg/Kg iv"}, "[8]": {"settings": "Treatment L: glibenclamide 30 μg/Kg iv"}, "[9]": {"settings": "lowest doses (treatments A, E and I)"}, "[10]": {"settings": "Treatment F: potassium canrenoate 1 mg/Kg iv"}, "[11]": {"settings": "Treatment G: potassium canrenoate 3 mg/Kg iv"}, "[12]": {"settings": "Treatment H: potassium canrenoate 10 mg/Kg iv"}}, "data": [{"molecule": "COc1ccc(Cl)cc1C(=O)NCCc1ccc(S(=O)(=O)NC(=O)NC2CCCCC2)cc1", "note": "[GLIBENCLAMIDE, 5-chloro-N-[2-[4-(cyclohexylcarbamoyl-sulfamoyl)phenyl]ethyl]-2-methoxybenzamide]", "values": [{"measurement": "reduction of cerebral edema, infarct volume and mortality", "setting": "[1]", "result": 50, "unit": "%"}, {"measurement": "hemispheric swelling at 24 h and 48-h mortality", "setting": "[2]", "result": "significantly reduced"}, {"measurement": "modified neurological severity score (NSS) compared with the control group on Day 2", "setting": "[3]; 3 μg/kg dose (treatment J)", "result": "did not show a statistically significant decrease"}, {"measurement": "Modified NSS on Day 2 (mean + SD)", "setting": "[3]; [5]", "result": "14 ± 1"}, {"measurement": "Modified NSS on Day 7 (mean + SD)", "setting": "[3]; [5]", "result": "12 ± 1"}, {"measurement": "percentage change of Modified NSS on Day 2 vs the control group", "setting": "[3]; [5]", "result": "[0%; NS]"}, {"measurement": "percentage change of Modified NSS on Day 7 vs the control group", "setting": "[3]; [5]", "result": "[−8%; NS]"}, {"measurement": "Modified NSS on Day 2 (mean + SD)", "setting": "[3]; [6]", "result": "13 ± 3"}, {"measurement": "Modified NSS on Day 7 (mean + SD)", "setting": "[3]; [6]", "result": "10 ± 1"}, {"measurement": "percentage change of Modified NSS on Day 2 vs the control group", "setting": "[3]; [6]", "result": "[−7%; NS]"}, {"measurement": "percentage change of Modified NSS on Day 7 vs the control group", "setting": "[3]; [6]", "result": "[−23%; *]"}, {"measurement": "Modified NSS on Day 2 (mean + SD)", "setting": "[3]; [7]", "result": "11 ± 3"}, {"measurement": "Modified NSS on Day 7 (mean + SD)", "setting": "[3]; [7]", "result": "8 ± 2"}, {"measurement": "percentage change of Modified NSS on Day 2 vs the control group", "setting": "[3]; [7]", "result": "[−21%; **]"}, {"measurement": "percentage change of Modified NSS on Day 7 vs the control group", "setting": "[3]; [7]", "result": "[−38%; ***]"}, {"measurement": "Modified NSS on Day 2 (mean + SD)", "setting": "[3]; [8]", "result": "11 ± 3"}, {"measurement": "Modified NSS on Day 7 (mean + SD)", "setting": "[3]; [8]", "result": "8 ± 1"}, {"measurement": "percentage change of Modified NSS on Day 2 vs the control group", "setting": "[3]; [8]", "result": "[−21%; **]"}, {"measurement": "percentage change of Modified NSS on Day 7 vs the control group", "setting": "[3]; [8]", "result": "[−38%; ***]"}, {"measurement": "modified neurological severity score (NSS) compared with the control group on Day 2", "setting": "[3]; [9]", "result": "did not show a statistically significant decrease"}, {"measurement": "modified neurological severity score (NSS) compared with the control group on Day 7", "setting": "[3]; [9]", "result": "did not show a statistically significant decrease"}, {"measurement": "Relative brain infarct volume on Day 7 (%) (mean + SD)", "setting": "[4]; [5]", "result": "33 ± 10", "unit": "%"}, {"measurement": "percentage change of relative brain infarct volume on Day 7 vs the control group", "setting": "[4]; [5]", "result": "[−21%; NS]"}, {"measurement": "Relative brain infarct volume on Day 7 (%) (mean + SD)", "setting": "[4]; [6]", "result": "19 ± 9", "unit": "%"}, {"measurement": "percentage change of relative brain infarct volume on Day 7 vs the control group", "setting": "[4]; [6]", "result": "[−55%; ***]"}, {"measurement": "Relative brain infarct volume on Day 7 (%) (mean + SD)", "setting": "[4]; [7]", "result": "16 ± 9", "unit": "%"}, {"measurement": "percentage change of relative brain infarct volume on Day 7 vs the control group", "setting": "[4]; [7]", "result": "[−62%; ***]"}, {"measurement": "Relative brain infarct volume on Day 7 (%) (mean + SD)", "setting": "[4]; [8]", "result": "17 ± 8", "unit": "%"}, {"measurement": "percentage change of relative brain infarct volume on Day 7 vs the control group", "setting": "[4]; [8]", "result": "[−60%; ***]"}, {"measurement": "efficacy when administered as monotherapies", "setting": "[4]", "result": "ineffective"}]}, {"molecule": "C[C@]12CCC(=O)C=C1C=C[C@@H]1[C@@H]2CC[C@@]2(C)[C@H]1CC[C@@]2(O)CCC(=O)[O-].[K+]", "note": "[POTASSIUM CANRENOATE, potassium 3-[(8R,9S,10R,13S,14S,17R)-17-hydroxy-10,13-dimethyl-3-oxo-2,8,9,11,12,14,15,16 octahydro-1H-cyclopenta[a]phenanthren-17-yl]propanoate]", "values": [{"measurement": "Modified NSS on Day 2 (mean + SD)", "setting": "[3]; [10]", "result": "12 ± 3"}, {"measurement": "Modified NSS on Day 7 (mean + SD)", "setting": "[3]; [10]", "result": "8 ± 1"}, {"measurement": "percentage change of Modified NSS on Day 2 vs the control group", "setting": "[3]; [10]", "result": "[−14%; *]"}, {"measurement": "percentage change of Modified NSS on Day 7 vs the control group", "setting": "[3]; [10]", "result": "[−38%; ***]"}, {"measurement": "Modified NSS on Day 2 (mean + SD)", "setting": "[3]; [11]", "result": "11 ± 2"}, {"measurement": "Modified NSS on Day 7 (mean + SD)", "setting": "[3]; [11]", "result": "10 ± 2"}, {"measurement": "percentage change of Modified NSS on Day 2 vs the control group", "setting": "[3]; [11]", "result": "[−21%; *]"}, {"measurement": "percentage change of Modified NSS on Day 7 vs the control group", "setting": "[3]; [11]", "result": "[−23%; *]"}, {"measurement": "Modified NSS on Day 2 (mean + SD)", "setting": "[3]; [12]", "result": "10 ± 1"}, {"measurement": "Modified NSS on Day 7 (mean + SD)", "setting": "[3]; [12]", "result": "8 ± 1"}, {"measurement": "percentage change of Modified NSS on Day 2 vs the control group", "setting": "[3]; [12]", "result": "[−29%; **]"}, {"measurement": "percentage change of Modified NSS on Day 7 vs the control group", "setting": "[3]; [12]", "result": "[−38%; ***]"}, {"measurement": "modified neurological severity score (NSS) compared with the control group on Day 2", "setting": "[3]; [9]", "result": "did not show a statistically significant decrease"}, {"measurement": "modified neurological severity score (NSS) compared with the control group on Day 7", "setting": "[3]; [9]", "result": "did not show a statistically significant decrease"}, {"measurement": "Relative brain infarct volume on Day 7 (%) (mean + SD)", "setting": "[4]; [10]", "result": "15 ± 6", "unit": "%"}, {"measurement": "percentage change of relative brain infarct volume on Day 7 vs the control group", "setting": "[4]; [10]", "result": "[−64%; ***]"}, {"measurement": "Relative brain infarct volume on Day 7 (%) (mean + SD)", "setting": "[4]; [11]", "result": "28 ± 11", "unit": "%"}, {"measurement": "percentage change of relative brain infarct volume on Day 7 vs the control group", "setting": "[4]; [11]", "result": "[−33%; **]"}, {"measurement": "Relative brain infarct volume on Day 7 (%) (mean + SD)", "setting": "[4]; [12]", "result": "12 ± 3", "unit": "%"}, {"measurement": "percentage change of relative brain infarct volume on Day 7 vs the control group", "setting": "[4]; [12]", "result": "[−71%; ***]"}, {"measurement": "efficacy when administered as monotherapies", "setting": "[4]", "result": "ineffective"}]}]}
